Experimental data: patent US9593146B2, “CD44v6-derived peptides for treating metastasizing cancer” (AMCURE GMBH, priority 2012, dated 2017)

What was measured:
HUVEC = experiment: Angiogenic response of HUVECs to angiogenic Langerhans islets; type: cell-based, human; conditions: HUVEC/collagen co-culture with islets, 5 to 7 days
Procedure: FIG. 20: The response of HUVECs to a mixture of angiogenic factors produced by angiogenic Langerhans islets can be reduced by CD44v6 specific inhibitors. HUVEC cells were mixed with CD44v6 antibody, CD44v6 peptide or control peptide and then suspended in a collagen gel. Hyperplastic angiogenic Langerhans islets isolated from the pancreas of 8-9 week old RIP1Tag2 mice were placed on top of the HUVEC/collagen mixture and overlaid with medium. Every third day new antibody or peptide was added and pictures were taken after 5 to 7 days. The number of islets that induced an angiogenic response of the ECs is given as percentage of all analysed islets. For quantification 60 islets per condition were analysed. Both the CD44v6 antibody and the CD44v6 peptide (human v6 14mer) reduced the angiogenic response, and the reduction obtained with the antibody is significant (p<0.05).
Langerhans islets are able to stimulate an angiogenic response when co-cultured with HUVEC cells in a collagen matrix. Such angiogenic hyperplastic islets of Langerhans were isolated by collagenase perfusion. They produce a mixture of angiogenic factors and thereby attract the ECs to get organised in capillary like structures. […] In agreement with published data around 60% of islets stimulated an angiogenic response in the control experiment (FIG. 20).

Met [1] = experiment: HGF induced activation of Met and Erk in L3.6pl, HeLa and HT29 cells; type: cell-based, human; conditions: added before induction with HGF
Procedure: FIG. 14: A: Activation of Met and signal transduction induced by HGF depends on CD44v6 in L3.6pl cells. L3.6pl cells were treated with the human v6 peptide (human v6 14mer) or the rat v6 peptide as control prior to induction with 10 ng/ml HGF. Activation of Met and ERK was determined in western blot. The numbers refer to the fold induction. The experiment was repeated at least 5 times. B: Activation of c-Met and signal transduction induced by HGF depends on CD44v6 HeLa cells. Starved HeLa cells respectively HT29 cells were incubated with the v6 peptide (human v6 14mer) or a control peptide for 10 minutes at 37° C. and then induced with 25 ng/ml of HGF for the indicated time points. Cells were then either lysed and the lysates were subjected to Western Blot analysis for phospho-Met and Met. C: Activation of c-Met and signal transduction induced by HGF depends on CD44v6 in HT29 cells. HGF-induced c-Met and Erk phosphorylation in HT29 was determined as described above using phospho-specific antibodies. […]
The contribution of CD44v6 to Met signaling in the human epithelial pancreatic cancer cells L3.6pl (derived from Colo 357), the cervix carcinoma cells HeLa and the colon cancer cells HT29 were analysed using the CD44v6 peptide (v6 14mer; v6 5mer tested as well, data not shown).

APC/Min/+ mice = experiment: APC/Min/+ mouse model, tumors in the duodenum; type: in vivo
Procedure: The effect of the v6 14mer was tested in the APC/Min/+ model model using 18 week old mice. The animals received an i.p. injection of 20 μg of v6 14mer (mouse 14mer) or control peptide (rat 14mer) three times per week for 6 weeks. Animals (three per group) were sacrificed at the end of the experiment and the duodenum was analyzed for the total number of tumors (FIG. 25).

Met [2] = experiment: HGF induced activation of Met and Erk in endothelial cells; type: cell-based, human; conditions: HUVEC, HAOEC and HCMEC; added before induction with HGF
Procedure: FIG. 12: CD44v6 is required for activation of Met and downstream signaling in several ECs. Different ECs (HUVEC, HAOEC and HCMEC) were serum starved and incubated with several reagents (aCD44v6, v6 14mer and the controls IgG and ctrl pep). The growth factor HGF was added and the cells were lysed. The proteins in the cell lysates were separated by SDS-PAGE and subjected to Western blot analysis. Activation of Met and of its downstream target Erk was detected by means of phospho-specific antibodies that detect phosphorylated forms of Met and Erk. In order to check equal loading of the different samples the membrane was incubated with stripping solution and reprobed with antibodies recognising all Met and Erk proteins. The numbers indicate the fold induction as calculated with the computer programme ImageJ.
When these ECs were treated with HGF, the receptor tyrosine kinase Met was phosphorylated and signaling to Erk—a downstream target of Met—was promoted (FIG. 12). The contribution of CD44v6 to Met signaling in these cells was analysed using different tools.

## KEQWFGNRWHEGYR [human 14mer, human CD44v6 14mer peptide]
HUVEC
  angiogenic response of the ECs: reduced
Met [1]
  activation of Met and of its downstream target Erk: able to prevent activation of Met and of its downstream target Erk
APC/Min/+ mice; i.p. injection for 6 weeks (FIG. 25)
  number of tumors in the duodenum: reduces the number of tumors in the duodenum
APC/Min/+ mice; mouse 14mer 20 μg i.p. three times per week for 6 weeks
  decrease according to the size of the tumor: more pronounced in case of small tumors (0-1 mm>1-2 mm>2-5 mm)
APC/Min/+ mice; mouse 14mer 20 μg i.p. three times per week for 6 weeks, 18 week old mice, preliminary data
  tumor size in the duodenum: strong decrease of the tumor size in the duodenum
APC/Min/+ mice; mouse 14mer 20 μg i.p. three times per week for 6 weeks, versus control peptide
  tumor number for tumors bigger than 5 mm: higher
Met [2]
  activation of Met and of its downstream target Erk: able to prevent activation of Met and of its downstream target Erk
